Read-outs that look alike come from different tables or passages of the source.
Assays:
[1] = human, in vivo; cited from earlier work
[2] = test system: SARS-CoV-2; experiment: Virus yield reduction assay, SARS-CoV-2 (virus titer by RT-qPCR); assay type: cell-based; settings: for reduction of virus titer compared to solvent control: 5% FBS; for reduction of virus titer compared to solvent control / reduction of the virus titer: 24 h; for reduction of the virus titer: Calu-3 and Caco-2 cells
Description: Calu-3 and Caco-2 cells were seeded in 24-well plates (Greiner Bio-One GmbH, Frickenhausen, Germany) and grown to 90% confluence. The cells were washed once with infection medium [IMDM supplemented with 0.2% bovine serum albumin (BSA) (Carl Roth GmbH + Co. KG, Karlsruhe, Germany) and 1% penicillin–streptomycin] prior to infection with a multiplicity of infection (MOI) of 0.01 of IAV PR8 or SARS-CoV-2 for 1 h in 200 µL of infection medium per well. Afterwards, the virus inoculum was removed completely, and the cells were washed once with infection medium and then treated with 1 mL per well of different concentrations of zapnometinib in infection medium with 1% dimethyl sulfoxide (DMSO) (Merck Millipore, Burlington, MA, USA) for 24 h at 37°C, 5% CO2. Supernatants were harvested and stored at −80°C for subsequent determination of virus titer and EC50 value. Cell lysates were prepared as described in the “Preparation of cell lysates and WES™ analysis” section for WES™ analysis.
The viral titers of IAV and SARS-CoV-2 viruses were determined using a real-time one-step multiplex RT-qPCR method. Briefly, viral nucleic acid extraction was performed using a QIAamp Viral RNA Mini Kit (Qiagen, Venlo, Netherlands) according to the manufacturer’s instructions. A TaqMan-based RT-qPCR assay was carried out using a QuantiNova Pathogen kit (Qiagen, Venlo, Netherlands) with specific primers targeting the SARS-CoV-2 N gene (2019-CoV2-N1F: […], 2019-CoV2-N1R: […], 2019-CoV2-N1P [6FAM]: […] [BHQ1]) and M gene for IAV according to the WHO guidelines. The viral genome copies per mL (gc/mL) were determined based on a standard curve prepared with 10-fold serial dilutions of the target gene. For quality control, nuclease-free water was included in each set of extractions as a negative control to monitor any possible cross-contamination. Moreover, an artificial exogenous QuantiNova RNA internal control (Qiagen, Venlo, Netherlands) was included during the nucleic acid purification to monitor the RNA purification efficiency and the RT-PCR amplification. A Rotor-Gene Q™ Real-Time PCR detection system (Qiagen, Venlo, Netherlands) was used for amplification, and the data were analyzed using Q-Rex software (Qiagen, Venlo, Netherlands).
For EC50 determination, a virus yield reduction assay was performed. The virus titer in the cell culture supernatant was determined and normalized to the solvent control. The EC50 value was determined using the “log(inhibitor) vs. normalized response - Variable slope” equation in GraphPad Prism version 9.4.0.

[3] = test system: IAV RB1; set-up: method as in Laure et al., 2020; settings: IAV RB1, medium containing 0.2% BSA; ref Laure et al., 2020; cited from earlier work
[4] = test system: SARS-CoV-2 B.1 isolate “FI”; set-up: method as in Schreiber et al., 2022; settings: ref Schreiber et al., 2022, read-out: EC50 value against SARS-CoV-2; cited from earlier work
[5] = test system: SARS-CoV-2; assay type: cell-based; settings: 100 µM, Caco-2 cells, MOI 4, 10 h
[6] = test system: SARS-CoV-2 N; assay type: cell-based; settings: MOI 0.01, 24 h; for reduction of SARS-CoV-2 N (N/ERK2 normalized to solvent control): both cell lines
[7] = test system: IAV PR8 NP; assay type: cell-based; settings: MOI 0.01, 24 h; for reduction of IAV PR8 NP (NP/ERK2 normalized to solvent control): both cell lines

For `O=C(O)c1ccc(F)c(F)c1Nc1ccc(I)cc1Cl` [zapnometinib, 2-(2-chloro-4-iodophenylamino)-N-3,4-difluoro benzoic acid], the “tolerability in phase I clinical trial” value [1] is listed as “well tolerated”, the “reduction of virus titer compared to solvent control” value (“reduction of virus titer” for short) ([2]; 6.25 µM, Caco-2 cells) is listed as “No significant reduction” and the “reduction of virus titer” value ([2]; 12.5 µM, Caco-2 cells) is listed as “No significant reduction”. For the same compound, the “reduction of virus titer” value ([2]; 25 µM, Caco-2 cells) was over 39%, the “reduction of the virus titer” value ([2]; 25 µM, 0.2% BSA) was at least 50% and the “reduction of virus titer” value ([2]; 50 µM, Caco-2 cells) was over 60%. The “reduction of the virus titer” value ([2]; 50 µM, 0.2% BSA) was at least 50%, the “reduction of virus titer” value ([2]; 75 µM, Caco-2 cells) was over 94% and the “reduction of the virus titer” value ([2]; 75 µM, 0.2% BSA) was over 90%. For the same compound, the “reduction of virus titer” value ([2]; 100 µM, Caco-2 cells) was over 99%, the “reduction of the virus titer” value ([2]; 100 µM, 0.2% BSA) was over 90% and the EC50 ([2]; Caco-2 cells, 0.2% BSA, MOI 0.01, 24 h, read-out: EC50 value against SARS-CoV-2 (FI)) was 22.9 µM. For the same compound, the EC50 ([2]; Severe acute respiratory syndrome coronavirus 2, Caco-2, 24 h, Caco-2 cells, 0.2% BSA, MOI 0.01, 24 h, read-out: EC50 value against SARS-CoV-2 (FI)) was 22.9 µM, the EC50 ([2]; Severe acute respiratory syndrome coronavirus 2, Caco-2, Caco-2 cells, medium containing 5% FBS, MOI 0.01, treatment 1 h post-infection, titer after 24 h, read-out: EC50 value against SARS-CoV-2) was 34.2 µM and the EC50 ([2]; Severe acute respiratory syndrome coronavirus 2, Calu-3, 24 h, Calu-3 cells, 0.2% BSA, MOI 0.01, 24 h, read-out: EC50 value against SARS-CoV-2 (FI)) was 19.7 µM. For the same compound, the EC50 ([2]; Severe acute respiratory syndrome coronavirus 2, summary for Calu-3 and Caco-2 cells, 0.2% BSA, read-out: EC50 values for SARS-CoV-2 in both cell lines) was about 20 µM, the EC50 [3] was 6.36 µM and the EC50 [4] was 31.3 µM. The “Infected cells (SARS-CoV-2 N positive) normalized to solvent control” value [5] was 18.3%, the “amount of SARS-CoV-2 N” value [5] was “reduced” and the “distribution of the SARS-CoV-2 N” value [5] was “did not change”. The “reduction of SARS-CoV-2 N (N/ERK2 normalized to solvent control)” value ([6]; 12.5 µM) was “approximately 50%”, the “reduction of SARS-CoV-2 N (N/ERK2 normalized to solvent control)” value ([6]; 50 µM) was over 70% and the “reduction of SARS-CoV-2 N (N/ERK2 normalized to solvent control)” value ([6]; 100 µM) was over 80%. For the same compound, the “lowest concentration at which SARS-CoV-2 N was significantly reduced compared to solvent control” value [6] was 12.5 µM, the “reduction of IAV PR8 NP (NP/ERK2 normalized to solvent control)” value ([7]; 12.5 µM) was “approximately 50%” and the “reduction of IAV PR8 NP (NP/ERK2 normalized to solvent control)” value ([7]; 50 µM) was over 70%. For the same compound, the “reduction of IAV PR8 NP (NP/ERK2 normalized to solvent control)” value ([7]; 100 µM) was over 80% and the “lowest concentration at which IAV PR8 NP was significantly reduced compared to solvent control” value [7] was 0.39 µM.

— paper PMC10641236, “Influenza A virus replication has a stronger dependency on Raf/MEK/ERK signaling pathway activity than SARS-CoV-2” (Frontiers in Cellular and Infection Microbiology, 2023)
